# Test results reported in patent US11459586B2, “Methods for increasing efficiency of nuclease-mediated gene editing in stem cells” (President and Fellows of Harvard College, priority 2016, dated 2022).
# Experiments:
# hiPSC = test: toxicity of chemical inhibitors added to hiPSC culture after nucleofection
# Protocol: Plasmids were purified using the plasmid DNA purification kit sold under the trademark Qiagen ENDOFREE® Plasmid Maxi kit and nucleofected into iPSC cells using the Lonza 4D-Nucleofector X unit (Buffer P3, Program CB-150). For each 20 μl nucleofection reaction, 0.2-0.5×106 iPSC were transfected with up to 4 μg of plasmid DNA. Post-nucleofection, iPSC were plated onto solubilized basement membrane matrix secreted by Engelbreth-Holm-Swarm (EHS) mouse sarcoma cells sold under the trademark […]®-coated wells containing feeder-free cell culture medium sold under the trademark MTESR1™ media with 10 μM Y-27632 plus other chemical inhibitors when noted. Later experiments included 50 μM zVAD-fmk (Bachem) for 1 day and 10 μM SB203580 (Biovision) for 4-5 days post transfection (see FIGS. 5, 6, 11, and 12). For FIG. 6 (ssODN transfection), 200 ng/ml recombinant B 18R (eBioscience), was also added to the culture for 5 days post transfection.
# The following inhibitors were added to the hiPSC culture at the concentrations and time periods indicated in the Examples below. • 1. p53 or Bax inhibitors: cyclic pifithrin α (StemCell Technologies); pifithrin (Tocris); peptide V5, peptide control, iMAC1 and iMAC2 (EMD Millipore); N-acetyl cysteine and 4-hydroxy TEMPO (TEMPOL) (Sigma). • 2. […]
# human iPSC [1] = test: gene targeting (mThy1, mCD147) in hiPSC transiently transfected with Cas9-IRES-anti-apoptotic gene plasmids; format: cell-based; conditions: Cas9 Bcl-2 sgRNA plasmids, transient transfection
# Protocol: FIGS. 4A-D. Bcl-2 overexpression increases HR-mediated gene targeting in human iPSC when transiently transfected with the Cas9 nuclease. FIG. 4A. Mouse Thy1 gene targeting scheme. FIG. 4B. Plasmids were constructed to constitutively express Cas9 together with an anti-apoptotic gene (separated by an IRES) under the constitutively active EF1α promoter. Plain human iPSC were nucleofected with 0.5 μg of one of these Cas9 plasmids together with 2 μg of the mThy1 targeting vector and 1.5 μg of plasmids expressing the Thy1 Left, Right, both, or no sgRNAs (pUC19). Five days later, cells were analyzed by flow cytometry. FIG. 4C. Flow cytometry staining for mThy1 and hThy1 for the Cas9 only sample gated on live single cells; the percent of cells in each quadrant is indicated. […] FIG. 4D. Compiled gene editing frequencies. The percent of mThy1^+hThy1^− (bottom portion of each bar in the left, center, and right grafts), mThy1^+hThy1^+ (top portion of bars in the left and center graphs), and mThy1^−hThy1^− (top portion of bars in the right graph) cells is graphed for each indicated sample. Lines mark the percentages for the Cas9 only sample. Results are representative of two independent experiments.
# FIGS. 8A-F. Wild type Bcl-2 improves gene targeting at various genomic loci across multiple hiPSC lines. FIG. 8A. Plasmids were constructed to constitutively express the Cas9 nuclease with a form of Bcl-2 (separated by an IRES), and a sgRNA. Three human iPSC lines were nucleofected with 2 μg of mThy1 or mCD147 targeting vector and 2 μg of “Cas9 sgRNA” or “Cas9 Bcl-2 sgRNA” expression plasmid. 5-9 days later, cells were analyzed by flow cytometry. FIG. 8B. Mouse Thy1 gene targeting scheme. FIG. 8C. Single amino acid mutations were generated for the Bcl-2 BH1 (G145A) or BH4 (Y28A) domains. Compiled gene editing frequencies for cells transfected with the Left, Right, or Both Thy1 sgRNAs. The percent of mThy1^+hThy1^− (bottom portion of each set of bars in each graph), mThy1^+hThy1^+ (top portion of left and center sets of bars in each graph and center portion of right set of bars in each graph), and mThy1^−hThy1^− (top portion of right set of bars in each graph) cells among the various samples is indicated. FIG. 8D. Mouse CD147 gene targeting scheme. FIG. 8E. Flow cytometry staining for mCD147 and hCD147 for retrovirally-derived PGP1 hiPSC transfected with “Cas9 sgRNA” or “Cas9 Bcl-2 sgRNA”. Samples are gated on live single cells; the percent of cells in each quadrant is indicated. FIG. 8F. Compiled gene editing frequencies for cells transfected with the Left, Right, or both CD147 sgRNAs. The percent of mCD147^+hCD147^− (bottom portion of each set of bars in each graph), mCD147^+hCD147^+ (top portion of left and center sets of bars in each graph and center portion of right set of bars in each graph), and mCD147^−hCD147^− (top portion of right set of bars in each graph) cells among the three hiPSC lines is indicated.
# PCR reactions were done using polymerase sold under the trademark KAPA HIFI™ HotStart polymerase; primers and double-stranded DNA fragments sold under the trademark GBLOCKS® are from IDT. Plasmids were constructed using isothermal assembly, transformed into Stbl3 competent E. coli (Invitrogen), grown at 30° C., and verified by Sanger sequencing (Genewiz). Anti-apoptotic genes were obtained from previously published plasmids: Bcl-2 (Addgene plasmid #8793) and Bcl-xL (#8790) (Cheng et al., 2001); Bcl2A1 (#36973) (Pratt et al., 2012); and Mcl-1 (#21605) (Maurer et al., 2006). The dominant negative p53 sequence from Addgene plasmid #9058 (Hahn et al., 2002) was synthesized as a gBlock. These genes were cloned into the EF1α promoter-Cas9 nuclease plasmid after an IRES.
# The U6 promoter-sgRNA (for each sgRNA sequence) was cloned into the EF1α promoter-Cas9 nuclease or EF1α promoter-Cas9 nuclease-IRES-Bcl-2 expression plasmids to form the “Cas9 only sgRNA” or “Cas9 Bcl-2 sgRNA” plasmids used in Examples 6 and 7. […]
# human iPSC [2] = test: mThy1 gene targeting in hiPSC co-transfected with DNA repair or viral inhibitor genes; format: cell-based; conditions: 0.5 μg plasmid overexpressing the DNA repair gene; 50 μM zVAD and 10 μM SB203580 post transfection (FIG. 9E)
# Protocol: FIGS. 9A-G. Effects of chemical and genetic inhibitors on mThy1 gene targeting in hiPSC. FIG. 9A. Mouse Thy1 gene targeting scheme. Human iPSC were nucleofected with the mThy1 targeting vector system plasmids and analyzed by flow cytometry five days later. The percentages of mThy1^+hThy1^−, mThy1^+hThy1^+, and mThy1^−hThy1^− cells for each sample (gated on live single cells) are graphed. Lines mark the percentage values for the control sample. FIGS. 9B-9D. Human iPSC were nucleofected with: 2 μg mThy1 targeting vector; 0.5 μg Cas9 plasmid; and 1.5 μg of sgRNA plasmids. The sample was divided into multiple wells and cultured in plain media (mTeSR1+10 μM Y-27632 ROCK inhibitor) supplemented with the indicated chemical inhibitor for three days. 20 μM pifithrin α, 200 μM peptide V5 (VPMLK, SEQ ID NO:31), 200 μM peptide control (IPMIK, SEQ ID NO:32), 50 μM TEMPOL, or the indicated concentrations of SCR7 or L755507 were used. FIG. 9B, mThy1^+hThy1^− (bottom portion of each bar in each graph), mThy1^+hThy1^+ (top portion of each bar in each graph). FIG. 9C, mThy1^+hThy1^− (bottom portion of each bar in each graph), mThy1^+hThy1^+ (top portion of each bar in left and center graphs, middle portion of each bar in right graph), and mThy1^−hThy1^− (top portion of each bar in right graph). […]
Compound,"mThy1 gene targeting, wild type vs mutant Bcl-2 (human iPSC [1])",mThy1 gene targeting efficiency (human iPSC [2]),further results
CC(=O)N[C@@H](CS)C(=O)O [N-acetyl cysteine],–,–,toxicity to hiPSC (hiPSC; 1-5 mM): toxicity
"G145A: Bcl-2 with G145A mutation in the BH1 domain, prevents interaction with Bax",intermediate levels of gene targeting,–,–
"BRCA2: principal HR mediator, overexpressed from plasmid",–,did not improve mThy1 gene targeting efficiency,–
C[C@H]1CCC/C=C/[C@@H]2C[C@H](O)C[C@H]2[C@H](O)/C=C/C(=O)O1 [Brefeldin A],–,–,"toxicity to hiPSC (hiPSC; PGP1 hiPSC, 0.1 μM, data not shown): toxic"
Y28A: Bcl-2 with Y28A mutation in the BH4 domain,intermediate levels of gene targeting,–,–
"BRCA1: principal HR mediator, overexpressed from plasmid",–,did not improve mThy1 gene targeting efficiency,–
